Source: patent US20260055088A1, “HETEROCYCLIC COMPOUND, METHOD FOR PREPARING SAME, AND PHARMACEUTICAL USE THEREOF” (Jiangsu Hengrui Pharmaceuticals Co., Ltd., priority 2022, published 2026)
“And” between values parts separate entries of the source, which are not always exact repeats. Equal entries are not always repeated.

Experiments:
rat incision pain model = assay: Analgesic efficacy in rat incision pain model (mechanical pain threshold); type: in vivo, SD rats; conditions: i.g./one dose; for Pain threshold: rat incision pain model, 5 h after administration; for Percent increase in threshold: vs. vehicle control
Procedure: To evaluate the analgesic efficacy of the compounds of the present disclosure in inhibiting pain in rats of a rat incision pain model.
The compounds of Example 16 and Example 32.
Test animals: SD rats, purchased from Beijing Vital River Laboratory Animal Technology Co., Ltd. (license number: SCXK (Zhejiang) 2019-0001), weighing about 180 g on purchase.
Housing conditions: 5 animals/cage, a 12/12-hour light/dark cycle, a constant temperature of 23±1° C. with humidity at 50 to 60%, ad libitum access to food and water.
After acclimatization, the SD rats were grouped as follows:
Nine SD rats, weighing 170-190 g, were selected for this study. The mechanical pain threshold was measured using an electronic aesthesiometer. Then an incision pain surgery was performed. During the surgery, after the rats were anesthetized with Zoletil (Zoletil-50, 250 mg, diluted with normal saline to 50 mL after being dissolved, injected at a dose of 2 mL per 200 g of body weight), a 1 cm long incision was made in the middle of the plantar surface of the left hind paw using a No. 10 scalpel blade, cutting through the skin and fascia, and the incision was closed using 3-0 sterile silk sutures. The injured area was disinfected with penicillin, and the animals were returned to their original place to recover overnight. After the overnight recovery, oral gavage administration was performed. Five hours after administration (about 24 h after surgery), the mechanical pain threshold was measured using an electronic aesthesiometer.
Data were recorded using Excel statistical software: The averages were calculated using avg; the SD values were calculated using STDEV; the SEM values were calculated using STDEV/SQRT (the number of animals per group). Plotting was performed using GraphPad Prism software. Statistical analysis of the data was performed using one-way ANOVA and t-test.
Percent increase in threshold (%)=[(Gt−G0)/G0]×100(%), where Gt is the plantar pain threshold of the administration group, and G0 is the plantar pain threshold of the vehicle group.

[1] = molecular target: Nav1.8 ion channel stably expressed on HEK293 cells (Homo sapiens (Human), UniProt Q9Y5Y9); assay: Inhibitory activity against Nav1.8, manual patch clamp; type: cell-based; conditions: resting protocol (-80 mV to 10 mV), 1 μM TTX, read-out: IC50 for the inhibition of Nav1.8 channel activity

SMILES | Pain threshold (rat incision pain model; 50 mpk) | Pain threshold (rat incision pain model; 100 mpk) | Pain threshold (rat incision pain model; 200 mpk) | Percent increase in threshold (rat incision pain model; 50 mpk) [%] | Percent increase in threshold (rat incision pain model; 100 mpk) [%] | Percent increase in threshold (rat incision pain model; 200 mpk) [%] | IC50 [1] [pM] | Pain threshold (rat incision pain model; 30 mpk) | Percent increase in threshold (rat incision pain model; 30 mpk) [%]
CO/N=C(\N)c1cc(NC(=O)[C@@H]2O[C@@](C)(C(F)(F)F)[C@@H](C)[C@H]2c2ccc(F)c(F)c2OC)ccn1 [Example 16] | 10.8 gf and 10.8 ± 0.5 gf | 14.9 gf and 14.9 ± 1.5 gf | 22.3 gf and 22.3 ± 1.8 gf | 7 | 49 | 122 | 330 | – | –
COc1c([C@H]2[C@H](C(=O)Nc3ccnc(/C(N)=N/O)c3)O[C@@](C)(C(F)(F)F)[C@H]2C)ccc(F)c1F [Example 32] | – | 22.3 gf and 22.3 ± 1.3 gf | 22.4 gf and 22.4 ± 2.5 gf | – | 114 | 114 | 930 | 12.0 gf and 12.0 ± 0.9 gf | 15
